Consider one substance from patent publication US20040236125A1, “Novel structures and compositions comprising sterols and/or stanols and specific classes of anti-inflammatory agents and use thereof in treating or preventing cardiovascular disease, its underlying conditions including hyperlipidemia and other disorders having inflammation as part of their …” (FORBES MEDI-TECH INC., priority 2002, published 2004).

Where two headings read alike, the source gives them in different places.

The target in one assay is COX-1 (Ovis aries, UniProt P05979). As to conditions: 0.45 μM, n=3. How it is done:
(§1) In summary, FDC-2-4 was treated with a 1:1 ratio of porcine pancreatic lipase and colipase (PL/C). Inhibition of cyclooxygenase was determined using a colorimetric (ovine) COX inhibitor screening assay. The conversion of arachidonic acid to prostaglandin H2 was monitored by a colorimetric reaction. […] Reaction was initiated by adding 100-μM arachidonic acid and 100-μM tetramethyl-p-phenylenediamine (TMPD—the colourimetric substrate). The optical density of the colored product was determined at 620 nm. Acetylsalicylate was used as a positive control in all experiments.
(§2) The solution was vortexed for 2 min. and sonicated for 5 min. before adding 2.5 mg porcine pancreatic lipase and 2.5 mg porcine colipase. The reaction was incubated at room temperature for 2 hours.
(§3) Inhibition was determined using a colorimetric (ovine) COX inhibitor screening assay (Cayman Chemicals). The conversion of arachidonic acid to prostaglandin H2 was monitored by a colorimetric reaction. COX was exposed to the inhibitors for 5 minutes. Reaction was initiated by adding 100-μM arachidonic acid and 100-μM tetramethyl-p-phenylenediamine (TMPD—the colourimetric substrate). The optical density of the colored product was determined at 620 nm 5 minutes after initiation. […] PL/C-treated FDC-2-4 was compared with non-PL/C-treated FDC-2-4 and control (no FDC-2-4 added) in determining COX inhibition. Acetylsalicylate (ASA), was used as a positive control in all experiments. Statistical Analysis on all treatment groups were done using ANOVA and Tukey Posthoc tests.

Another assay addresses COX-2 (Ovis aries, UniProt P79208). As to conditions: 4.5 μM, n=3. On the procedure:
as §1, §2, §3

Assay [1] concerns cholesterol absorption in the intestine. As to conditions: 20 mg/kg single-dose oral gavage in Intralipid 10% emulsion; blood 10 hours after gavage; FIG. 3.
Description: Adult male Sprague Dawley rats (˜350 g) were maintained under a 12 h light (0700-1900)/dark cycle and supplied with a laboratory standard diet and water ad libitum prior to starting the experiment.
Both groups received a single-dose oral gavage at 0700. Blood collection was performed by cardiac puncture 10 hours after oral gavage. Animals were fasted after gavage. Access to water was permitted ad libitum during the experiment. Blood obtained by cardiac puncture was collected in EDTA-coated tubes and centrifuged. Plasma samples were analyzed for [3H] cholesterol by radioactivity.
Adult male Sprague Dawley rats were given one of the derivatives of the present invention in an oral formulation containing:
20 mg/kg sterol/stanol analogue
1 mg unlabeled cholesterol
25 μCi [3H] Cholesterol in an emulsion with Intralipid 10%.
Animals were fasted 12-16 hours before and 10 hours after the oral gavage was performed. Blood samples were collected by cardiac puncture 10 hours following oral gavage. Plasma samples obtained by centrifugation were analyzed for [3H] Cholesterol and results expressed as a percentage of inhibition of cholesterol absorption in the intestine.
In addition sodium hydroxide was added to adjust the pH so that the final product pH is 8.0; pH range is 6.0 to 8.9. […] Each animal received 20 mg/kg body weight test substance dissolved in water or other appropriate solvent. […]
Setting [2] is: PL/C-treated (pancreatic lipase/colipase).

Sequence of COX-2 (P79208 17-603): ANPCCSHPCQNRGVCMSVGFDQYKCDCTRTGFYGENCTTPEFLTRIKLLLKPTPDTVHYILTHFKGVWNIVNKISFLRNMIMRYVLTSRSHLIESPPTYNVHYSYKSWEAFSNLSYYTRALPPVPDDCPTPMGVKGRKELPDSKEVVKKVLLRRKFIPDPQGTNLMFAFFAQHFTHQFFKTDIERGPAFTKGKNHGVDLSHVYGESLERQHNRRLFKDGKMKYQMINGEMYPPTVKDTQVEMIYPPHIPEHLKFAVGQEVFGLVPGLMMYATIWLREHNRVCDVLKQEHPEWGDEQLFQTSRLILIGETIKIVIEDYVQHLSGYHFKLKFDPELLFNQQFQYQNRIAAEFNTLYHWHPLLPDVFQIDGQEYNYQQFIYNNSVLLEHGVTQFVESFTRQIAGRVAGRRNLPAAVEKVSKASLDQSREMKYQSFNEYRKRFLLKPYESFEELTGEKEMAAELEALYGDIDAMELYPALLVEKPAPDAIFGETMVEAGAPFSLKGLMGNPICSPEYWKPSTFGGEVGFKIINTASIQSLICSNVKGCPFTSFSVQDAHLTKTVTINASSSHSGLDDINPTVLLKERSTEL
Sequence of COX-1 (P05979 25-600): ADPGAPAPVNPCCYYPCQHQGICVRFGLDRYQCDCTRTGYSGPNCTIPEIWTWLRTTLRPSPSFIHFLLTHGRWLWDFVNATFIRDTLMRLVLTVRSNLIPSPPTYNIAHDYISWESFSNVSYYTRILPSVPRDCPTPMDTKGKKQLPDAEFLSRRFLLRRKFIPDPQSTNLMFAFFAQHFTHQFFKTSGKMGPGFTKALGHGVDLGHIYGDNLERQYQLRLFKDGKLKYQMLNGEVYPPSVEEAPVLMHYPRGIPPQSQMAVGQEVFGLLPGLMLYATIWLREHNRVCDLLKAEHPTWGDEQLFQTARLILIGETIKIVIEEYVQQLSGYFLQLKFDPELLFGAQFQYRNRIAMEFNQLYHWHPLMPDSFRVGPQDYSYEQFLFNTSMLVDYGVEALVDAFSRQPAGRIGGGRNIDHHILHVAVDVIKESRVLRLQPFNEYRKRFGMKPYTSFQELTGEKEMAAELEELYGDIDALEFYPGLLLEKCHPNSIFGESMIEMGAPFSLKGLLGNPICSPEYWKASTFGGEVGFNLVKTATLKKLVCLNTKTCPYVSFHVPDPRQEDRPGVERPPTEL

For the substance acetoxyphytostanyl salicylate [FDC-2-4], the “inhibition of COX-1 activity” value on COX-1 (setting [2]) was 69%; on COX-1 (non-PL/C-treated) it was 20%. Moreover, the figures for the “inhibition of COX-2” value against COX-2 (setting [2]) and against COX-2 (non-PL/C-treated) were 88% and 64%, respectively. Further, in assay [1], the “inhibition of cholesterol absorption (plasma [3H] cholesterol) compared with controls and VP4” value is “significantly outperforms both the controls and VP4”.
